According to patent US20130116274A1 (RUTGERS, THE STATE UNIVERSITY OF NEW JERSEY, priority 2011, published 2013):

How the values were obtained:
[1] = system: SKMEL 28 human melanoma cells; experiment: MTT cell viability assay, SKMEL 28; format: cell-based; details: single agent 10 μM, FIG. 5A
Method: (§6) MTT cell viability assays were performed as known in the art. C8161, UACC903, 1205Lu, SKMEL 187 and A2058 melanoma cell lines were used in the MTT assays. […] Viable cells were measured every day for 4 or 7 days. Absorbance was determined using a Tecan plate reader (Infinite 200 Tecan USA, Durham, N.C.) at 570 nm everyday for up to 7 days.

UACC903 melanoma cells [2] = experiment: MTT cell viability assay, UACC903; format: cell-based, human; details: for cell proliferation and viability (number of viable cells): single agent, seven days
Method: as §6

AKT phosphorylation = experiment: Western immunoblot, phosphorylated AKT; format: cell-based; details: three human melanoma cell lines (C8161, UACC903, SKMEL 28)
Method: (§1) Protein lysates were prepared as commonly known in the art. Briefly, media was removed and cells were washed once with ice-cold phosphate buffered saline (PBS). After removal of PBS, the extraction buffer was added directly to the plates and cells were collected with a cell scraper. Cells were incubated on ice for 20 minutes. Cell debris was removed by centrifugation at 25,000×g at 4° C. for 20 minutes and supernatant taken for Western immunoblot analysis. Western Blotting was carried out with anti-PARP, anti-cleaved PARP, anti-phospho ERK, anti-total ERK, anti-a-tubulin antibodies, anti AKT and anti-Phospho AKT-S473.

C8161 melanoma cells = experiment: MTT cell viability assay, C8161; details: for cell proliferation and viability (number of viable cells): single agent, seven days, FIG. 1A
Method: as §6

[3] = system: C8161 human melanoma xenografts; experiment: Immunohistochemistry on excised C8161 xenografts (riluzole/MK2206 study); format: in vivo, mice; details: riluzole 10 mg/kg; for cleaved Caspase-3-positive (apoptotic) cells: MK2206 30 mg/kg, or riluzole 5 mg/kg + MK2206 15 mg/kg, combination p<0.001 vs single agent
Description: (§2) Tissue Analytical Services at the Cancer Institute of New Jersey performed immunohistochemical staining on excised tumor xenografts to detect changes in the number of apoptotic and proliferating cells (activated Caspase 3 and Ki-67, respectively). The number of stained cells was quantified with a Digital Aperio ScanScopeGL system and ImageScope software (v 10.1.3.2028) (Aperio Technologies Inc., Vista, Calif.) according to the manufacturer's protocol.
Excised tumor samples were subjected to immunohistochemistry evaluation with the apoptosis marker, cleaved Caspase-3, and the proliferation index marker, Ki-67.

[4] = system: C8161 human melanoma xenografts; experiment: C8161 xenografts in immunodeficient nude mice; format: in vivo; details: riluzole 10 mg/kg
Method: (§3) The Institutional Review Board approved all animal studies for the Animal Care and Facilities Committee of Rutgers University. Nude mice were purchased from Taconic (Hudson, N.Y.). Cells were injected into 2 dorsal sites of each mouse at 10^6 cells per site. Tumor size was measured twice a week with a Vernier caliper and calculated as described. Once tumor volumes reached 6-10 mm^3, mice were divided into no treatment and treatment groups. […] The experiments were terminated when the xenografts in the no treatment group reached the maximum permitted size.
C8161 human melanoma cells were inoculated into the dorsal flanks of immunodeficient nude mice. 10^6 cells were inoculated into each dorsal flank of 5-6 week-old mice. When the tumors reached tumor volumes of ˜10 mm^3, the mice were randomly divided in 5 groups with similar tumor volumes. The mice were then treated by oral gavage daily, except for […] treatment, which was administered three times a week. […] Tumor volumes were determined once a week with a vernier caliper and the experiment was terminated when tumor burden in the control animals reached maximum permitted levels.

ERK phosphorylation = experiment: Western immunoblot, ERK phosphorylation; format: cell-based, human; details: C8161, UACC903 and 1205Lu cells; harvested xenografts showed similar results
Method: as §1

Mcl-1 = experiment: Western immunoblot, Mcl-1 levels; format: cell-based, human; details: C8161, UACC903 and 1205Lu cells
[5] = system: UACC903 human melanoma xenografts; experiment: UACC903 xenografts in immunodeficient nude mice; format: in vivo
Method: as §3
(§4) Briefly, UACC903 cells were injected into the dorsal flanks of nude mice. Tumors were allowed to grow to approximately 6-10 mm^3 and mice were divided into groups to obtain relatively constant tumor volumes between each group (12 mice per group).

[6] = system: 1205Lu human melanoma cell line; experiment: Three dimensional anchorage independent colony assay, 1205Lu; format: cell-based; details: riluzole 10 μM, sorafenib 5 μM or both; 14 days; FIG. 2
Method: (§5) The cells were suspended in 0.35% agar in RPMI supplemented with 10% FBS and plated on a layer of 0.75% agar in the same medium in 12-well culture plates (1−1.5×10^4 cells/well). […] Every other day, the vehicle, or drug(s) was again added with 250 μl of complete medium. After 14 days, the colonies were stained with iodonitrotetrazolium chloride (Sigma) and photographed. The numbers of colonies were counted using Image J software. Quantitation was performed by comparing the total number of colonies from three representative photomicrographs from each experiment. The histograms represent the average of three independent experiments.

cleaved form of PARP = experiment: Western analysis, cleaved PARP; format: cell-based, human; details: riluzole 10 μM; UACC903, 1205Lu, A2058 cells; 24 and 48 hours
Method: as §1, §4

[7] = system: SKMEL2 human melanoma cell line; experiment: Three dimensional anchorage independent colony assay, SKMEL2; format: cell-based; details: riluzole 10 μM, sorafenib 5 μM or both; 14 days; vs control group; FIG. 2
Method: as §5

1205Lu melanoma cells [8] = experiment: Cell cycle analysis (propidium iodide flow cytometry), 1205Lu; format: cell-based, human; details: riluzole 10 μM, 24 hours post-treatment
Method: as §6

UACC903 melanoma cells [9] = experiment: Cell cycle analysis (propidium iodide flow cytometry), UACC903; format: cell-based, human; details: riluzole 10 μM, 24 hours post-treatment
Method: as §6

excised tumor xenografts = experiment: Immunohistochemistry on excised xenografts (riluzole/sorafenib study); format: in vivo, mice; details: for number of Ki-67 positive cells: Ki-67 immunohistochemistry; for number of positive Caspase 3 cells vs controls: cleaved Caspase 3 immunohistochemistry
Description: as §2
Additionally, immunohistochemical analyses were performed on excised xenografts using antibodies against the cleaved form of Caspase 3 to detect apoptotic cell death, and Ki-67 to detect changes in cell proliferation.

[10] = system: C8161 human melanoma cell line; experiment: Three dimensional anchorage independent colony assay, C8161; format: cell-based; details: riluzole 10 μM, sorafenib 5 μM or both; 14 days; FIG. 2
Method: as §5

A2058 melanoma cells [11] = experiment: MTT cell viability assay, A2058; format: cell-based, human; details: riluzole 25 μM or 50 μM vs no treatment or vehicle (DMSO)
Method: as §6

melanoma = details: Phase II; cited from earlier work
1205Lu melanoma cells [12] = experiment: MTT cell viability assay, 1205Lu; format: cell-based, human; details: for cell proliferation and viability (number of viable cells): single agent, seven days, FIG. 1C
Method: as §6

A2058 melanoma cells [13] = experiment: Cell cycle analysis (propidium iodide flow cytometry), A2058; format: cell-based, human; details: riluzole 10 μM, 24 hours post-treatment
Method: as §6

advanced melanoma = details: cited from earlier work
[14] = system: UACC903 human melanoma cell line; experiment: Three dimensional anchorage independent colony assay, UACC903; format: cell-based; details: riluzole 10 μM, sorafenib 5 μM or both; 14 days; FIG. 2
Method: as §5

SKMEL 187 melanoma cells = experiment: MTT cell viability assay, SKMEL 187; format: cell-based, human; details: riluzole 25 μM or 50 μM vs no treatment or vehicle (DMSO)
Method: as §6

[15] = system: 1205Lu human melanoma xenografts; experiment: 1205Lu xenografts in immunodeficient nude mice; format: in vivo; details: riluzole 10 mg/kg, sorafenib 24 mg/kg, or riluzole 5 mg/kg + sorafenib 12 mg/kg daily oral gavage; FIG. 3C
Method: as §3

[16] = riluzole 25 μM or 50 μM vs no treatment or vehicle (DMSO)

Compound | AKT phosphorylation (AKT phosphorylation) | cleaved Caspase-3-positive (apoptotic) cells [3] | ERK phosphorylation (ERK phosphorylation) | Mcl-1 levels (Mcl-1) | reduction in colony formation [6] [%] | decrease in colony formation [7] | cell proliferation and viability (number of viable cells) (UACC903 melanoma cells [2]; FIG. 1B) | number of Ki-67 positive cells (excised tumor xenografts) | number of positive Caspase 3 cells vs controls (excised tumor xenografts) | decrease in colony formation [10] | cell proliferation and viability (number of viable cells) (C8161 melanoma cells) | cell proliferation and viability (number of viable cells) (1205Lu melanoma cells [12]) | reduction in the number of colonies [14] | other results
NC1(c2ccc(-c3nc4ccn5c(=O)[nH]nc5c4cc3-c3ccccc3)cc2)CCC1 [MK2206] | suppress AKT phosphorylation | significant increase in apoptotic cells |  |  |  |  |  |  |  |  |  |  |  | cell proliferation [1]: suppress cell proliferation; cell proliferation (UACC903 melanoma cells [2]; single agent 10 μM, FIG. 5A): suppress cell proliferation; cell proliferation (C8161 melanoma cells; single agent 10 μM, FIG. 5A): suppress cell proliferation; number of Ki-67 positive cells ([3]; MK2206 30 mg/kg, or combination at half the dose of each (p<0.001)): decrease in the number of Ki-67 positive cells; tumor volume / xenograft growth ([4]; MK2206 30 mg/kg, or riluzole 5 mg/kg + MK2206 15 mg/kg, oral gavage, FIG. 6, combination p<0.005 vs NT or vehicle): suppress the growth of the melanoma xenografts
CCCS(=O)(=O)Nc1ccc(F)c(C(=O)c2c[nH]c3ncc(Cl)cc23)c1F [PLX4720] |  |  | only found to suppress ERK activity in the B-RAF^V600E cell line UACC903 | does not down regulate the levels of Mcl-1 |  |  |  |  |  |  |  |  |  | IC50 (UACC903 melanoma cells [2]; Homo sapiens, UACC-903, UACC903 cells, MTT, FIG. 1B): 100 nM; inhibition in cell proliferation (C8161 melanoma cells; PLX4720 10 uM): only slight inhibition in cell proliferation; tumor progression ([5]; riluzole 10 mg/kg, PLX4720 20 mg/kg, or riluzole 5 mg/kg + PLX4720 10 mg/kg, FIG. 3D): not as potent as riluzole
Nc1nc2ccc(OC(F)(F)F)cc2s1 [riluzole] | suppress AKT phosphorylation | significant increase in apoptotic cells | decrease in levels of ERK phosphorylation in a cell line-dependent manner |  | 30 | 18% | not as sensitive to riluzole | reduced | substantial increase in the number of positive Caspase 3 cells | 40% | greatest reduction in the number of viable cells | not as sensitive to riluzole | very little inhibitory activity | cleaved form of PARP (cleaved form of PARP): increase in the cleaved form of PARP; cells accumulating in the G2/M phase (1205Lu melanoma cells [8]): about half; cells accumulating in the G2/M phase (UACC903 melanoma cells [9]): about half; number of viable cells (UACC903 melanoma cells [2]; [16]): significantly decreased the number of viable cells; number of viable cells (A2058 melanoma cells [11]): significantly decreased the number of viable cells; number of viable cells (C8161 melanoma cells; [16]): significantly decreased the number of viable cells; tumor size vs controls ([5]; single agent riluzole daily by oral gavage, day 18, 12 mice per group): substantial difference between the tumor sizes; RECIST criteria responses (melanoma): no RECIST criteria responses; patients exhibiting stable disease (melanoma): 42%; number of viable cells (1205Lu melanoma cells [12]; [16]): significantly decreased the number of viable cells; cells accumulating in the G2/M phase (A2058 melanoma cells [13]): about half; patients showing measurable clinical responses (advanced melanoma; Phase 0, patients with advanced melanoma given riluzole): 34%; decrease in tumor size (advanced melanoma; Phase 0, some tumors): over 90%; number of viable cells (SKMEL 187 melanoma cells): significantly decreased the number of viable cells
CNC(=O)c1cc(Oc2ccc(NC(=O)Nc3ccc(Cl)c(C(F)(F)F)c3)cc2)ccn1 [sorafenib] |  |  | more highly suppress ERK phosphorylation in UACC903 and 1205Lu cells than in C8161 cells | reduction in Mcl-1 levels was detected in sorafenib-treated UACC903 and 1205 LU cells | 30 | more efficacious at decreasing colony formation | substantial decrease in the number of viable cells | reduced | substantial increase in the number of positive Caspase 3 cells | little effect | not very effective in suppressing C8161 cell growth | substantial decrease in the number of viable cells | 45% | tumor volume ([5]; riluzole 10 mg/kg, sorafenib 24 mg/kg, or riluzole 5 mg/kg + sorafenib 12 mg/kg daily oral gavage, FIG. 3B, p<0.01 single agents day 18, p<0.001 combination): statistically relevant responses; tumor volume response compared to UACC903 xenografts [15]: more sensitive; tumor volume ([4]; sorafenib 24 mg/kg, or riluzole 5 mg/kg + sorafenib 12 mg/kg daily oral gavage, FIG. 3A, p<0.001 for riluzole and combination vs NT or Veh): did not yield a significant decrease in tumor size
